These results are taken from US20240116985A1, “STAPLED PEPTIDES AND METHODS THEREOF” (priority 2020, published 2024).

Experiment [1] has as its target T1, full-length beta-Catenin (Uniprot ID P35222) (Homo sapiens, UniProt P35222).
T1 construct: 10 nM full-length beta-Catenin (Uniprot ID P35222)
T1 sequence (P35222 1-781): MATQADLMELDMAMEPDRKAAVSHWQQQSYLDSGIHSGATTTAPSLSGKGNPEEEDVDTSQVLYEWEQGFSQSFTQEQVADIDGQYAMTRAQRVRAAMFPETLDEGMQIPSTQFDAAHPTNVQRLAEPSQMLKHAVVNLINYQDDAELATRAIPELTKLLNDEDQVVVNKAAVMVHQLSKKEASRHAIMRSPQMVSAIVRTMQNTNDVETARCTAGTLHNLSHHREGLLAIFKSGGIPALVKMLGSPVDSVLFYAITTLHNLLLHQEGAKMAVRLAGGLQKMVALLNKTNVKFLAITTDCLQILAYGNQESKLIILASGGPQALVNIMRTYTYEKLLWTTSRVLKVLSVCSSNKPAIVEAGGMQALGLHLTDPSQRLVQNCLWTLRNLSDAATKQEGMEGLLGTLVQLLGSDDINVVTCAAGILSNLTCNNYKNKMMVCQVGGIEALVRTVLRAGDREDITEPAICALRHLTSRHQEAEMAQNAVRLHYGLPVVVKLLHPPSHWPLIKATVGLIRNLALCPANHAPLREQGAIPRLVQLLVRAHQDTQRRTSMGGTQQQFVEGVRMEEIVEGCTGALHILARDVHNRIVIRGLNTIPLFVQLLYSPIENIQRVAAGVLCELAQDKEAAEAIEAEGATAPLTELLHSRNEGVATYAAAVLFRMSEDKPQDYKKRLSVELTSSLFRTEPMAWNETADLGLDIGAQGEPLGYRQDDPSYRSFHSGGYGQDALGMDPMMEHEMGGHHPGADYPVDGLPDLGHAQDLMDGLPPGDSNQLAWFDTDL
Description: Fluorescence polarization IC50 (beta-catenin / 5FAM-TCF4 10-53 competition). It counts as binding. On the technique in general: Polarisation of emitted light reports the rotation of a fluorescent probe.

Experiment [2] concerns the target T2, beta-catenin/TCF4 engagement (Homo sapiens, UniProt P35222).
T2 construct: expressed in transfected cells; host or cells: HEK293
T2 sequence (P35222 1-781): T1 sequence (P35222 1-781)
As to the kind of experiment: Nano-BRET target engagement assay (B-cat-Halo & TCF4-Luc in HEK293 cells). It is filed as cell-based. The conditions noted are these: read-out: NanoBRET Abs IC50. (In general: Bioluminescence resonance energy transfer reports proximity on the nanometre scale.)

Where [3] appears, read: fluorescence polarization; read-out: beta-Catenin FP IC50.
[4] abbreviates: read-out: beta-Catenin FP IC50; fluorescence polarization.

Read-outs that look alike come from different tables or passages of the source.

One may read the IC50 as the concentration that inhibits the measured activity by half. Turning to `CC(=O)N1CCC[C@]12CC=CCCCC1(CCCC=CCCCOC(=O)N3CC[C@@](C(=O)N[C@@H](Cc4ccsc4)C(=O)N[C@@H](Cc4csc5ccccc45)C(=O)N[C@@H](CCC(N)=O)C(N)=O)(C3)NC(=O)[C@H](CCC(=O)N3CC[C@@H](N(C)C)C3)NC(=O)[C@H](Cc3ccccc3)NC(=O)[C@H](C)NC(=O)[C@H](C)NC(=O)[C@H](CN(CC(=O)O)CC(F)(F)F)NC(=O)[C@H](CC(=O)O)NC1=O)NC(=O)[C@H](CC(C)(C)C)NC(=O)[C@H](CC(=O)O)NC2=O` (stereo partly drawn) [I-1939, Ac-PL3-Asp-Npg-B5-Asp-TfeGA-Ala-Ala-Phe-[RDMAPyr]GlnR-PyrS2-3Thi-BztA-Gln-NH2], the half-maximal inhibitory concentration (IC50) in experiment [1] (setting [3]) was 10 nM; in experiment [2] it was 20.7 µM.
With `CC(=O)N1CCC[C@]12CC=CCCCC1(CCCC=CCCCOC(=O)N3CC[C@@](C(=O)N[C@@H](Cc4ccsc4)C(=O)N[C@@H](Cc4csc5ccccc45)C(=O)N[C@@H](CCC(N)=O)C(N)=O)(C3)NC(=O)[C@H](CCC(=O)N3CCC(N4CCCCC4)CC3)NC(=O)[C@H](Cc3ccccc3)NC(=O)[C@H](C)NC(=O)[C@H](C)NC(=O)[C@H](CN(CC(=O)O)CC(F)(F)F)NC(=O)[C@H](CC(=O)O)NC1=O)NC(=O)[C@H](CC(C)(C)C)NC(=O)[C@H](CC(=O)O)NC2=O` (stereo partly drawn) [I-1940, Ac-PL3-Asp-Npg-B5-Asp-TfeGA-Ala-Ala-Phe-[4Pippip]GlnR-PyrS2-3Thi-BztA-Gln-NH2], the IC50 came to 6 nM in experiment [1] (setting [3]) and 15.4 µM in experiment [2].
For `CC(=O)N1CCC[C@]12CC=CCCCC1(CCCC=CCCCOC(=O)N3CC[C@@](C(=O)N[C@@H](Cc4ccsc4)C(=O)N[C@@H](Cc4csc5ccccc45)C(=O)N[C@@H](CCC(N)=O)C(N)=O)(C3)NC(=O)[C@H](CCC(=O)N3CCNCC3)NC(=O)[C@H](Cc3ccccc3)NC(=O)[C@H](C)NC(=O)[C@H](C)NC(=O)[C@H](CN(CC(=O)O)CC(F)(F)F)NC(=O)[C@H](CC(=O)O)NC1=O)NC(=O)[C@H](CC(C)(C)C)NC(=O)[C@H](CC(=O)O)NC2=O` (stereo partly drawn) [I-1941, Ac-PL3-Asp-Npg-B5-Asp-TfeGA-Ala-Ala-Phe-[Ppz]GlnR-PyrS2-3Thi-BztA-Gln-NH2] the same measures were 6 nM and 12.9 µM.
Turning to `CC(=O)N1CCC[C@]12CC=CCCCC1(CCCC=CCCCOC(=O)N3CC[C@@](C(=O)N[C@@H](Cc4ccsc4)C(=O)N[C@@H](Cc4csc5ccccc45)C(=O)N[C@@H](CCC(N)=O)C(N)=O)(C3)NC(=O)[C@H](CCC(=O)NCc3ccccc3)NC(=O)[C@H](Cc3ccccc3)NC(=O)[C@H](C)NC(=O)[C@H](C)NC(=O)[C@H](CN(CC(=O)O)CC(F)(F)F)NC(=O)[C@H](CC(=O)O)NC1=O)NC(=O)[C@H](CC(C)(C)C)NC(=O)[C@H](CC(=O)O)NC2=O` (stereo partly drawn) [I-1942, Ac-PL3-Asp-Npg-B5-Asp-TfeGA-Ala-Ala-Phe-[NHBn]GlnR-PyrS2-3Thi-BztA-Gln-NH2], the results for the IC50 in experiment [1] (setting [3]) and in experiment [2] were 11 nM and 7.9 µM, respectively.
`CC(=O)N1CCC[C@]12CC=CCCCC1(CCCC=CCCCOC(=O)N3CC[C@@](C(=O)N[C@@H](Cc4ccsc4)C(=O)N[C@@H](Cc4csc5ccccc45)C(=O)N[C@@H](CCC(N)=O)C(N)=O)(C3)NC(=O)[C@H](CCC(=O)N3CCOCC3)NC(=O)[C@H](Cc3ccccc3)NC(=O)[C@H](C)NC(=O)[C@H](C)NC(=O)[C@H](CN(CC(=O)O)CC(F)(F)F)NC(=O)[C@H](CC(=O)O)NC1=O)NC(=O)[C@H](CC(C)(C)C)NC(=O)[C@H](CC(=O)O)NC2=O` (stereo partly drawn) [I-1943, Ac-PL3-Asp-Npg-B5-Asp-TfeGA-Ala-Ala-Phe-[Morph]GlnR-PyrS2-3Thi-BztA-Gln-NH2]: the IC50 in experiment [1] (setting [3]) stood at 7 nM; in experiment [2] it was 3.8 µM.
In the case of `CC(=O)N1CCC[C@]12CC=CCCCC1(CCCC=CCCCOC(=O)N3CC[C@@](C(=O)N[C@@H](Cc4ccsc4)C(=O)N[C@@H](Cc4csc5ccccc45)C(=O)N[C@@H](CCC(N)=O)C(N)=O)(C3)NC(=O)[C@H](CC(C)C)NC(=O)[C@H](Cc3ccccc3)NC(=O)[C@H](C)NC(=O)[C@H](C)NC(=O)[C@H](CCC(=O)S)NC(=O)[C@H](CC(=O)O)NC1=O)NC(=O)[C@H](CC(C)(C)C)NC(=O)[C@H](CC(=O)O)NC2=O` (stereo partly drawn) [I-1949, Ac-PL3-Asp-Npg-B5-Asp-GluSH-Ala-Ala-Phe-Leu-PyrS2-3Thi-BztA-Gln-NH2], the figures for the IC50 in experiment [1] (setting [3]) and in experiment [2] were 96 nM and 28.5 µM, respectively.
Taken in the same sequence, the figures for `CC(=O)N1CCC[C@]12CC=CCCCC1(CCCC=CCCCOC(=O)N3CC[C@@](C(=O)N[C@@H](Cc4ccsc4)C(=O)N[C@@H](Cc4csc5ccccc45)C(=O)N[C@@H](CCC(N)=O)C(N)=O)(C3)NC(=O)[C@H](CC(C)C)NC(=O)[C@H](Cc3ccccc3)NC(=O)[C@H](C)NC(=O)[C@H](C)NC(=O)[C@H](CCC(=O)OCCSSc3ccccn3)NC(=O)[C@H](CC(=O)O)NC1=O)NC(=O)[C@H](CC(C)(C)C)NC(=O)[C@H](CC(=O)O)NC2=O` (stereo partly drawn) [I-1951, Ac-PL3-Asp-Npg-B5-Asp-[EtSSpy]GluE-Ala-Ala-Phe-Leu-PyrS2-3Thi-BztA-Gln-NH2] were 264 nM and > 20 µM.
Take `CC(=O)N1CCC[C@]12CC=CCCCC1(CCCC=CCCCOC(=O)N3CC[C@@](C(=O)N[C@@H](Cc4ccsc4)C(=O)N[C@@H](Cc4csc5ccccc45)C(=O)N[C@@H](CCC(N)=O)C(N)=O)(C3)NC(=O)[C@H](CC(C)C)NC(=O)[C@H](Cc3ccccc3)NC(=O)[C@H](C)NC(=O)[C@H](C)NC(=O)[C@H](CC(=O)O)NC(=O)[C@H](CC(=O)O)NC1=O)NC(=O)[C@H](CC(C)(C)C)NC(=O)[C@H](CC(=O)OCCSSc1ccccc1)NC2=O` (stereo partly drawn) [I-1952, Ac-PL3-[EtSSPh]AspE-Npg-B5-Asp-Asp-Ala-Ala-Phe-Leu-PyrS2-3Thi-BztA-Gln-NH2]: the half-inhibitory concentration (IC50) in experiment [1] (setting [4]) was 923 nM; in experiment [2], > 20 µM.
Consider `CC(=O)N1CCC[C@]12CC=CCCCC1(CCCC=CCCCOC(=O)N3CC[C@@](C(=O)N[C@@H](Cc4ccsc4)C(=O)N[C@@H](Cc4csc5ccccc45)C(=O)N[C@@H](CCC(N)=O)C(N)=O)(C3)NC(=O)[C@H](CC(C)C)NC(=O)[C@H](Cc3ccccc3)NC(=O)[C@H](C)NC(=O)[C@H](C)NC(=O)[C@H](CC(=O)O)NC(=O)[C@H](CC(=O)O)NC1=O)NC(=O)[C@H](CC(C)(C)C)NC(=O)[C@H](CC(=O)OCCSSc1ccccc1)NC2=O` (stereo partly drawn) [I-1953, Ac-PL3-[EtSSPh]AspE-Npg-B5-Asp-Asp-Ala-Ala-Phe-Leu-PyrS2-3Thi-BztA-Gln-NH2], for which the IC50 in experiment [1] (setting [4]) was 306 nM; in experiment [2], > 20 µM.
In the case of `CC(=O)N1CCC[C@]12CC=CCCCC1(CCCC=CCCCOC(=O)N3CC[C@@](C(=O)N[C@@H](Cc4ccsc4)C(=O)N[C@@H](Cc4csc5ccccc45)C(=O)N[C@@H](CCC(N)=O)C(N)=O)(C3)NC(=O)[C@H](CC(C)C)NC(=O)[C@H](Cc3ccccc3)NC(=O)[C@H](C)NC(=O)[C@H](C)NC(=O)[C@H](CC(=O)O)NC(=O)[C@H](CC(=O)OCCSSc3ccccc3)NC1=O)NC(=O)[C@H](CC(C)(C)C)NC(=O)[C@H](CC(=O)O)NC2=O` (stereo partly drawn) [I-1954, Ac-PL3-Asp-Npg-B5-[EtSSPh]AspE-Asp-Ala-Ala-Phe-Leu-PyrS2-3Thi-BztA-Gln-NH2], the IC50 in experiment [1] (setting [4]) is 994 nM; in experiment [2] it was > 20 µM.
